Data published in ChEMBL document CHEMBL1201861, “Genomics of Drug Sensitity in Cancer screening data, Wellcome Trust Sanger Institute”.

Key:
Test in all cases: cells
TE-8 = assay type: functional, cell-based, Homo sapiens; conditions: Homo sapiens, TE-8;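 note: growth inhibition of TE-8 cells, measured with a cell viability readout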
Description: SANGER: Inhibition of human TE-8 cell growth in a cell viability assay.

SW 954 = assay type: functional, cell-based, Homo sapiens; conditions: Homo sapiens, SW 954;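 note: growth inhibition of SW954 human cancer cells, read out as cell viability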
Description: SANGER: Inhibition of human SW954 cell growth in a cell viability assay.

GT3TKB = assay type: functional, cell-based, Homo sapiens; conditions: Homo sapiens, GT3TKB;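 note: growth inhibition of the cell line, read out with a cell viability assay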
Description: SANGER: Inhibition of human GT3TKB cell growth in a cell viability assay.

P30-OHK = assay type: functional, cell-based, Homo sapiens; conditions: Homo sapiens, P30-OHK;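 note: growth inhibition of the P30-OHK cell line, read out with a cell viability assay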
Description: SANGER: Inhibition of human P30-OHK cell growth in a cell viability assay.

NB13 = assay type: functional, cell-based, Homo sapiens; conditions: Homo sapiens, NB13;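 note: cell viability readout measuring growth inhibition of human NB13 cells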
Description: SANGER: Inhibition of human NB13 cell growth in a cell viability assay.

SW684 = assay type: functional, cell-based, Homo sapiens; conditions: Homo sapiens, SW684;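 note: growth inhibition of human SW684 cells, measured by a cell viability assay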
Description: SANGER: Inhibition of human SW684 cell growth in a cell viability assay.

COLO-684 = assay type: functional, cell-based, Homo sapiens; conditions: Homo sapiens, COLO-684
Description: SANGER: Inhibition of human COLO-684 cell growth in a cell viability assay.

697 = assay type: functional, cell-based, Homo sapiens; conditions: Homo sapiens
Description: SANGER: Inhibition of human 697 cell growth in a cell viability assay.

SBC-1 = assay type: functional, cell-based, Homo sapiens; conditions: Homo sapiens, SBC-1;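 note: cell viability assay measuring growth inhibition of the SBC-1 cell line, IC50 being the concentration that halves growth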
Description: SANGER: Inhibition of human SBC-1 cell growth in a cell viability assay.

SNU-C2B = assay type: functional, cell-based, Homo sapiens; conditions: Homo sapiens, SNU-C2B;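 note: cell viability readout used to measure compound-driven suppression of SNU-C2B cell proliferation, IC50 marking half-maximal growth inhibition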
Description: SANGER: Inhibition of human SNU-C2B cell growth in a cell viability assay.

KARPAS-299 = assay type: functional, cell-based, Homo sapiens; conditions: Homo sapiens, KARPAS-299
Description: SANGER: Inhibition of human KARPAS-299 cell growth in a cell viability assay.

NCI-H69 = assay type: functional, cell-based, Homo sapiens; conditions: Homo sapiens, NCI-H69;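 note: growth inhibition of the cell line, read out with a cell viability assay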
Description: SANGER: Inhibition of human NCI-H69 cell growth in a cell viability assay.

NH-12 = assay type: functional, cell-based, Homo sapiens; conditions: Homo sapiens, NH-12;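 note: growth inhibition of NH-12 cells, read out with a cell viability assay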
Description: SANGER: Inhibition of human NH-12 cell growth in a cell viability assay.

ES4 = assay type: functional, cell-based, Homo sapiens; conditions: Homo sapiens, ES4;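 note: growth inhibition of human ES4 cells, read out by a cell viability assay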
Description: SANGER: Inhibition of human ES4 cell growth in a cell viability assay.

CW-2 = assay type: functional, cell-based, Homo sapiens; conditions: Homo sapiens, CW-2;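 note: growth inhibition of CW-2 cells, read out by a cell viability assay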
Description: SANGER: Inhibition of human CW-2 cell growth in a cell viability assay.

AM-38 = assay type: functional, cell-based, Homo sapiens; conditions: Homo sapiens, AM-38;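 note: growth inhibition of AM-38 cells of human origin, read out by a cell viability assay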
Description: SANGER: Inhibition of human AM-38 cell growth in a cell viability assay.

MHH-PREB-1 = assay type: functional, cell-based, Homo sapiens; conditions: Homo sapiens, MHH-PREB-1;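 note: cell viability assay measuring inhibition of proliferation of human MHH-PREB-1 cells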
Description: SANGER: Inhibition of human MHH-PREB-1 cell growth in a cell viability assay.

NCI-H209 = assay type: functional, cell-based, Homo sapiens; conditions: Homo sapiens, NCI-H209;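 note: growth inhibition of human NCI-H209 cells, measured by a cell viability assay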
Description: SANGER: Inhibition of human NCI-H209 cell growth in a cell viability assay.

MN-60 = assay type: functional, cell-based, Homo sapiens; conditions: Homo sapiens, MN-60;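 note: growth inhibition of the MN-60 cell line, determined with a cell viability assay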
Description: SANGER: Inhibition of human MN-60 cell growth in a cell viability assay.

LB2518-MEL = assay type: functional, cell-based, Homo sapiens; conditions: Homo sapiens, LB2518-MEL;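 note: growth inhibition of human LB2518-MEL cells, measured with a cell viability assay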
Description: SANGER: Inhibition of human LB2518-MEL cell growth in a cell viability assay.

SCC-15 = assay type: functional, cell-based, Homo sapiens; conditions: Homo sapiens, SCC-15;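 note: growth inhibition of SCC-15 cells, read out with a cell viability assay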
Description: SANGER: Inhibition of human SCC-15 cell growth in a cell viability assay.

NCI-H1155 = assay type: functional, cell-based, Homo sapiens; conditions: Homo sapiens, NCI-H1155;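 note: cell growth inhibition measured by a viability assay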
Description: SANGER: Inhibition of human NCI-H1155 cell growth in a cell viability assay.

D283 Med = assay type: functional, cell-based, Homo sapiens; conditions: Homo sapiens, D283 Med
Description: SANGER: Inhibition of human D-283MED cell growth in a cell viability assay.

SNU1 = assay type: functional, cell-based, Homo sapiens; conditions: Homo sapiens, SNU1;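 note: growth inhibition of human NCI-SNU-1 cells, measured with a cell viability assay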
Description: SANGER: Inhibition of human NCI-SNU-1 cell growth in a cell viability assay.

GCIY = assay type: functional, cell-based, Homo sapiens; conditions: Homo sapiens, GCIY;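 note: growth inhibition of the human GCIY cell line, read out by a cell viability assay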
Description: SANGER: Inhibition of human GCIY cell growth in a cell viability assay.

IA-LM = assay type: functional, cell-based, Homo sapiens; conditions: Homo sapiens, IA-LM;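 note: cell viability assay measuring growth inhibition of human IA-LM cells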
Description: SANGER: Inhibition of human IA-LM cell growth in a cell viability assay.

Ramos-2G6-4C10 = assay type: functional, cell-based, Homo sapiens; conditions: Homo sapiens, Ramos-2G6-4C10;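 note: growth inhibition of the cell line, measured by a cell viability read-out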
Description: SANGER: Inhibition of human Ramos-2G6-4C10 cell growth in a cell viability assay.

HEL = assay type: functional, cell-based, Homo sapiens; conditions: Homo sapiens, HEL;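 note: growth inhibition of HEL cells, read out with a cell viability assay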
Description: SANGER: Inhibition of human HEL cell growth in a cell viability assay.

KS-1 = assay type: functional, cell-based, Homo sapiens; conditions: Homo sapiens, KS-1;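 note: growth inhibition of KS-1 cells, read out with a cell viability assay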
Description: SANGER: Inhibition of human KS-1 cell growth in a cell viability assay.

NCI-H2126 = assay type: functional, cell-based, Homo sapiens; conditions: Homo sapiens, NCI-H2126;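 note: growth inhibition of the cancer cell line, determined with a cell viability readout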
Description: SANGER: Inhibition of human NCI-H2126 cell growth in a cell viability assay.

MSTO-211H = assay type: functional, cell-based, Homo sapiens; conditions: Homo sapiens, MSTO-211H
Description: SANGER: Inhibition of human MSTO-211H cell growth in a cell viability assay.

NB5 = assay type: functional, cell-based, Homo sapiens; conditions: Homo sapiens, NB5;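 note: growth inhibition of NB5 cells, read out as cell viability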
Description: SANGER: Inhibition of human NB5 cell growth in a cell viability assay.

CTV-1 = assay type: functional, cell-based, Homo sapiens; conditions: Homo sapiens, CTV-1;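 note: growth inhibition of the cell line, read out with a cell viability assay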
Description: SANGER: Inhibition of human CTV-1 cell growth in a cell viability assay.

LAN-6 = assay type: functional, cell-based, Homo sapiens; conditions: Homo sapiens, LAN-6;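 note: growth inhibition of LAN-6 cells, determined with a cell viability assay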
Description: SANGER: Inhibition of human LAN-6 cell growth in a cell viability assay.

PSN1 = assay type: functional, cell-based, Homo sapiens; conditions: Homo sapiens, PSN1;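 note: suppression of growth of human PSN1 cells, read out by a cell viability assay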
Description: SANGER: Inhibition of human PSN1 cell growth in a cell viability assay.

BT-474 = assay type: functional, cell-based, Homo sapiens; conditions: Homo sapiens, BT-474
Description: SANGER: Inhibition of human BT-474 cell growth in a cell viability assay.

SK-NEP-1 = assay type: functional, cell-based, Homo sapiens; conditions: Homo sapiens, SK-NEP-1;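 note: growth inhibition of human SK-NEP-1 cells, read out by a cell viability assay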
Description: SANGER: Inhibition of human SK-NEP-1 cell growth in a cell viability assay.

ATN-1 = assay type: functional, cell-based, Homo sapiens; conditions: Homo sapiens, ATN-1;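 note: growth inhibition of human ATN-1 cells, read out with a cell viability assay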
Description: SANGER: Inhibition of human ATN-1 cell growth in a cell viability assay.

DJM-1 = assay type: functional, cell-based, Homo sapiens; conditions: Homo sapiens, DJM-1;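 note: growth inhibition of human DJM-1 cells, read out by a cell viability assay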
Description: SANGER: Inhibition of human DJM-1 cell growth in a cell viability assay.

SK-N-FI = assay type: functional, cell-based, Homo sapiens; conditions: Homo sapiens, SK-N-FI;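 note: cell viability assay measuring growth inhibition of human SK-N-FI cells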
Description: SANGER: Inhibition of human SK-N-FI cell growth in a cell viability assay.

U-87 MG = assay type: functional, cell-based, Homo sapiens, U-87MG ATCC; conditions: Homo sapiens, U-87 MG;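 note: growth inhibition of the cells measured with a viability assay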
Description: SANGER: Inhibition of human U-87-MG cell growth in a cell viability assay.

HCC1187 = assay type: functional, cell-based, Homo sapiens; conditions: Homo sapiens, HCC1187;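 note: growth inhibition of HCC1187 cells, read out with a cell viability assay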
Description: SANGER: Inhibition of human HCC1187 cell growth in a cell viability assay.

TE-9 = assay type: functional, cell-based, Homo sapiens; conditions: Homo sapiens, TE-9;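 note: cell growth inhibition, measured with a cell viability readout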
Description: SANGER: Inhibition of human TE-9 cell growth in a cell viability assay.

SW982 = assay type: functional, cell-based, Homo sapiens; conditions: Homo sapiens, SW982;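 note: growth inhibition of SW982 cells, read out with a cell viability assay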
Description: SANGER: Inhibition of human SW982 cell growth in a cell viability assay.

A253 cell line = assay type: functional, cell-based, Homo sapiens; conditions: Homo sapiens, A253;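 note: growth inhibition of A253 cells, read out with a cell viability assay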
Description: SANGER: Inhibition of human A253 cell growth in a cell viability assay.

EW-16 = assay type: functional, cell-based, Homo sapiens; conditions: Homo sapiens, EW-16;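 note: growth inhibition of human EW-16 cells, read out as cell viability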
Description: SANGER: Inhibition of human EW-16 cell growth in a cell viability assay.

NCI-H1304 = assay type: functional, cell-based, Homo sapiens; conditions: Homo sapiens, NCI-H1304;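 note: growth inhibition of the cancer cell line, measured in a cell viability assay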
Description: SANGER: Inhibition of human NCI-H1304 cell growth in a cell viability assay.

SNU-5 = assay type: functional, cell-based, Homo sapiens; conditions: Homo sapiens, SNU-5;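 note: cell viability readout used to measure growth inhibition in human NCI-SNU-5 cells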
Description: SANGER: Inhibition of human NCI-SNU-5 cell growth in a cell viability assay.

CCN(CC)CCCCNc1ncc2cc(-c3cc(OC)cc(OC)c3)c(NC(=O)NC(C)(C)C)nc2n1 [PD-173074]
IC50 (TE-8): > 2 µM | IC50 (SW 954): > 2 µM | IC50 (GT3TKB): > 2 µM | IC50 (P30-OHK): > 2 µM | IC50 (NB13): > 2 µM | IC50 (SW684): > 2 µM | IC50 (COLO-684): > 2 µM | IC50 697: > 2 µM | IC50 (SBC-1): > 2 µM | IC50 (SNU-C2B): > 2 µM | IC50 (KARPAS-299): > 2 µM | IC50 (NCI-H69): > 2 µM | IC50 (NH-12): > 2 µM | IC50 (ES4): > 2 µM | IC50 (CW-2): > 2 µM | IC50 (AM-38): > 2 µM | IC50 (MHH-PREB-1): > 2 µM | IC50 (NCI-H209): > 2 µM | IC50 (MN-60): > 2 µM | IC50 (LB2518-MEL): > 2 µM | IC50 (SCC-15): > 2 µM | IC50 (NCI-H1155): > 2 µM | IC50 (D283 Med): > 2 µM | IC50 (SNU1): > 2 µM | IC50 (GCIY): > 2 µM | IC50 (IA-LM): > 2 µM | IC50 (Ramos-2G6-4C10): > 2 µM | IC50 (HEL): > 2 µM | IC50 (KS-1): > 2 µM | IC50 (NCI-H2126): > 2 µM | IC50 (MSTO-211H): 1.47 µM | IC50 (NB5): > 2 µM | IC50 (CTV-1): > 2 µM | IC50 (LAN-6): > 2 µM | IC50 (PSN1): > 2 µM | IC50 (BT-474): > 2 µM | IC50 (SK-NEP-1): > 2 µM | IC50 (ATN-1): > 2 µM | IC50 (DJM-1): > 2 µM | IC50 (SK-N-FI): > 2 µM | IC50 (U-87 MG): > 2 µM | IC50 (HCC1187): > 2 µM | IC50 (TE-9): > 2 µM | IC50 (SW982): > 2 µM | IC50 (A253 cell line): > 2 µM | IC50 (EW-16): > 2 µM | IC50 (NCI-H1304): > 2 µM | IC50 (SNU-5): > 2 µM

COc1cc2c(Nc3ccc(NC(=O)c4ccccc4)cc3)ncnc2cc1OCCCN1CCOCC1
IC50 (TE-8): 2.49 µM | IC50 (SW 954): 0.836 µM | IC50 (GT3TKB): > 4 µM | IC50 (P30-OHK): > 4 µM | IC50 (NB13): > 4 µM | IC50 (SW684): > 4 µM | IC50 (COLO-684): > 4 µM | IC50 697: 0.739 µM | IC50 (SBC-1): 1.04 µM | IC50 (SNU-C2B): > 4 µM | IC50 (KARPAS-299): > 4 µM | IC50 (NCI-H69): > 4 µM | IC50 (NH-12): 3.28 µM | IC50 (ES4): > 4 µM | IC50 (CW-2): > 4 µM | IC50 (AM-38): > 4 µM | IC50 (MHH-PREB-1): > 4 µM | IC50 (NCI-H209): 1.17 µM | IC50 (MN-60): > 4 µM | IC50 (LB2518-MEL): > 4 µM | IC50 (SCC-15): 3.73 µM | IC50 (NCI-H1155): 3.04 µM | IC50 (D283 Med): > 4 µM | IC50 (SNU1): 3.11 µM | IC50 (GCIY): > 4 µM | IC50 (IA-LM): > 4 µM | IC50 (Ramos-2G6-4C10): 1.41 µM | IC50 (HEL): > 4 µM | IC50 (KS-1): > 4 µM | IC50 (NCI-H2126): > 4 µM | IC50 (MSTO-211H): > 4 µM | IC50 (NB5): 1.84 µM | IC50 (CTV-1): 2.07 µM | IC50 (LAN-6): > 4 µM | IC50 (PSN1): > 4 µM | IC50 (BT-474): > 4 µM | IC50 (SK-NEP-1): 1.36 µM | IC50 (ATN-1): > 4 µM | IC50 (DJM-1): > 4 µM | IC50 (SK-N-FI): > 4 µM | IC50 (U-87 MG): > 4 µM | IC50 (HCC1187): > 4 µM | IC50 (TE-9): > 4 µM | IC50 (SW982): > 4 µM | IC50 (A253 cell line): > 4 µM | IC50 (EW-16): 3.23 µM | IC50 (NCI-H1304): > 4 µM | IC50 (SNU-5): > 4 µM

Cn1cnc2c(F)c(Nc3ccc(Br)cc3Cl)c(C(=O)NOCCO)cc21 [SELUMETINIB]
IC50 (TE-8): > 4 µM | IC50 (SW 954): 0.896 µM | IC50 (GT3TKB): > 4 µM | IC50 (P30-OHK): > 4 µM | IC50 (NB13): > 4 µM | IC50 (SW684): > 4 µM | IC50 (COLO-684): > 4 µM | IC50 697: > 4 µM | IC50 (SBC-1): > 4 µM | IC50 (SNU-C2B): > 4 µM | IC50 (KARPAS-299): > 4 µM | IC50 (NCI-H69): > 4 µM | IC50 (NH-12): > 4 µM | IC50 (ES4): > 4 µM | IC50 (CW-2): > 4 µM | IC50 (AM-38): > 4 µM | IC50 (MHH-PREB-1): > 4 µM | IC50 (NCI-H209): > 4 µM | IC50 (MN-60): > 4 µM | IC50 (LB2518-MEL): 0.0938 µM | IC50 (SCC-15): > 4 µM | IC50 (NCI-H1155): > 4 µM | IC50 (D283 Med): > 4 µM | IC50 (SNU1): 1.77 µM | IC50 (GCIY): > 4 µM | IC50 (IA-LM): > 4 µM | IC50 (Ramos-2G6-4C10): > 4 µM | IC50 (HEL): > 4 µM | IC50 (KS-1): > 4 µM | IC50 (MSTO-211H): > 4 µM | IC50 (NB5): 2.57 µM | IC50 (CTV-1): > 4 µM | IC50 (LAN-6): 2.83 µM | IC50 (PSN1): 0.366 µM | IC50 (BT-474): > 4 µM | IC50 (SK-NEP-1): > 4 µM | IC50 (ATN-1): > 4 µM | IC50 (DJM-1): > 4 µM | IC50 (SK-N-FI): > 4 µM | IC50 (U-87 MG): > 4 µM | IC50 (HCC1187): > 4 µM | IC50 (TE-9): > 4 µM | IC50 (SW982): > 4 µM | IC50 (A253 cell line): > 4 µM | IC50 (EW-16): > 4 µM | IC50 (NCI-H1304): > 4 µM | IC50 (SNU-5): 3.61 µM
